The nature of data set [1]: Aqueous solubility of compound at pH 7.4 by HPLC analysis. The data set is classed as physicochemical.
Data set [2] relates to Zika virus. Nature of the data set: Antiviral activity against Zika virus infected in African green monkey Vero cells assessed as reduction in virus induced cell death. The format is functional, organism-based.
Data set [3] has as its system Enterovirus. Description: Antiviral activity against Human enterovirus 71 infected in African green monkey Vero cells assessed as reduction in virus induced cell death. The data set is classed as functional, organism-based.
The test system of data set [4] is Sindbis virus. Description: Antiviral activity against Sindbis virus HRsp infected in African green monkey Vero cells assessed as reduction in virus induced cell death. The data set is classed as functional, organism-based.
Data set [5] concerns Semliki Forest virus. Description: Antiviral activity against Semliki forest virus infected in African green monkey Vero cells assessed as reduction in virus induced cell death. The data set is classed as functional, organism-based.
Data set [6] deals with Chikungunya virus. Nature of the data set: Antiviral activity against Chikungunya virus infected in African green monkey Vero cells assessed as reduction in viral induced cell death incubated for 5 days by MTS reagent based absorbance method. The format is functional, organism-based. Particulars: 120 h. A general note: Tetrazolium dyes change colour on reduction, which living cells bring about.

In data set [7] the target is hERG (KCNH2) (Homo sapiens, UniProt Q12809). Nature of the data set: Inhibition of hERG in Xenopus laevis Oocytes upto 30 uM incubated for 10 mins by patch-clamp method relative to control. The format is cell-based, Oocyte. Particulars: Xenopus laevis oocytes expressing hERG. (Block of hERG is tested as a sign of cardiac risk.)
Data set [8] is described as follows: Metabolic stability in human liver microsomes assessed as half-life preincubated for 5 mins followed by NADPH addition and measured upto 60 mins by HPLC-MS/MS analysis. The data set is classed as ADME, Microsome. Particulars: time < 65 min. In general terms: Liver microsomes are vesicles of endoplasmic reticulum, rich in cytochrome P450 enzymes.
For data set [9], the system named is Caco-2. Nature of the data set: Induction of apoptosis in human Caco-2 cells assessed as increase in PARP expression at 6.25 to 100 uM incubated for 72 hrs by Western blot analysis. The data set is classed as toxicity, cell-based. Particulars: caco-2, 72 h, dose 6.25-100 µM.
Data set [10] is described as follows: Metabolic stability in human liver microsomes assessed as parent compound remaining preincubated for 5 mins followed by NADPH addition and measured upto 60 mins by HPLC-MS/MS analysis. The format is ADME, Microsome. Particulars: time < 65 min, read-out: Stability.
Data set [11] relates to Chikungunya virus. Description: Fold resistance , ratio of EC50 for antiviral activity against CHVB-resistant Chikungunya virus infected in African green monkey Vero cells to EC50 for antiviral activity against wildtype Chikungunya virus 899 infected in African green monkey Vero cells. The data set is classed as functional.
In data set [12] the test system is Caco-2. Description: Induction of apoptosis in human Caco-2 cells assessed as increase in caspase-3 expression at 6.25 to 100 uM incubated for 72 hrs by Western blot analysis. The format is toxicity, cell-based. Particulars: caco-2, 72 h, dose 6.25-100 µM.
Data set [13] in a line: Cytotoxicity against African green monkey Vero cells assessed as reduction in overall metabolic activity incubated for 5 days by MTS reagent based absorbance method. The format is toxicity, cell-based. Particulars: chlorocebus sabaeus, time 5 day.
Data set [14] has as its system Chikungunya virus. Description: Antiviral activity against Chikungunya virus 899 infected in African green monkey Vero cells assessed as reduction in viral RNA replication preincubated for 2 hrs with subsequent viral infected followed by media replacement with compound and measured after 48 hrs by qRT-PCR analysis. The format is functional, organism-based. Particulars: dose 0.25-60 µM, time 50.0 hrs.

The nature of data set [15]: Selectivity index, ratio of CC50 for cytotoxicity against African green monkey Vero cells to EC50 for antiviral activity against Chikungunya virus infected in African green monkey Vero cells assessed as reduction in viral induced cell death. Particulars: read-out: Ratio CC50/EC50. The data set is classed as toxicity, cell-based.
The test system of data set [16] is Caco-2. Nature of the data set: Cytotoxicity against human Caco-2 cells incubated for 24 to 72 hrs by MTT assay. The format is toxicity, cell-based. Particulars: time 24-72 hrs.
Data set [17] deals with Chikungunya virus. Nature of the data set: Antiviral activity against Chikungunya virus 899 infected in African green monkey Vero cells assessed as log10 reduction in intracellular viral level at 2.22 uM preincubated for 2 hrs with subsequent viral infected followed by media replacement with compound and measured after 48 hrs by qRT-PCR analysis. The format is functional. Particulars: time 50 hrs.

The subject of data set [18] is Chikungunya virus. Nature of the data set: Antiviral activity against Chikungunya virus 899 infected in African green monkey Vero cells assessed as log10 reduction in intracellular viral level at 60 uM preincubated for 2 hrs with subsequent viral infected followed by media replacement with compound and measured after 48 hrs by qRT-PCR analysis. The format is functional. Particulars: time 50 hrs.

≈ marks a conversion by molar mass, not a printed value. Calls of active or inactive are those of the source. The calls are words filed in the database; no cut-off is given here.

Chain of hERG (KCNH2) (Q12809 whole entry): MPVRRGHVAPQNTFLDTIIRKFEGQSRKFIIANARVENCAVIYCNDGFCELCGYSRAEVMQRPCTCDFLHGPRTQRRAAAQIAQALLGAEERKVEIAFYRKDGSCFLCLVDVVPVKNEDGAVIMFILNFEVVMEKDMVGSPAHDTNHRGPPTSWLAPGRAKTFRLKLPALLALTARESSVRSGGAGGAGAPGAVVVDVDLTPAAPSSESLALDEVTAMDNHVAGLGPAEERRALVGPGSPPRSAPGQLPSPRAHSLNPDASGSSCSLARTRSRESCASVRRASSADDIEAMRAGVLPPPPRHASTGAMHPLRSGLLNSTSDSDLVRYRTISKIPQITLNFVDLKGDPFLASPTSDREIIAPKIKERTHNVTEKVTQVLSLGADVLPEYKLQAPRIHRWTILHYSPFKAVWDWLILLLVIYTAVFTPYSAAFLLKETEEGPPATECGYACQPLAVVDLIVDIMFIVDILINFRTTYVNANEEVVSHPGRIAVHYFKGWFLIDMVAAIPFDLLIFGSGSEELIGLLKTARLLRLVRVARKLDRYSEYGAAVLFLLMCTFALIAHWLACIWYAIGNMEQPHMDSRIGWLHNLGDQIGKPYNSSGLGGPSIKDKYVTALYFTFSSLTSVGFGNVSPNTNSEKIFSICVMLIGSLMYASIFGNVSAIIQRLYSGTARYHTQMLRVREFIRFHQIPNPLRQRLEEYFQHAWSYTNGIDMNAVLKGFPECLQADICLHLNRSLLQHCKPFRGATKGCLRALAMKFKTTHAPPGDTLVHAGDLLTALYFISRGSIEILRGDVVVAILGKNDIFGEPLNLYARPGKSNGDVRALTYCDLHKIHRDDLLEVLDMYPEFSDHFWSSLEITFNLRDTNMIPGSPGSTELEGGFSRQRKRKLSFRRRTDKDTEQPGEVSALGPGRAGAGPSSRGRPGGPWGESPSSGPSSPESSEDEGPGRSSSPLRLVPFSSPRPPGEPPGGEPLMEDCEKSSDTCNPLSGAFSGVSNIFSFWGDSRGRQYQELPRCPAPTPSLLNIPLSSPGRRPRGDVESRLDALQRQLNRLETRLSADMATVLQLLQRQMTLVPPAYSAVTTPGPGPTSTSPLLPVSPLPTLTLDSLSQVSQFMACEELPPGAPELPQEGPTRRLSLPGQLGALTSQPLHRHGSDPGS

As a reminder, the solubility is the concentration that dissolves in the medium under given conditions. What is called EC50 is the midpoint of the concentration-response curve. Usually inhibition stands for the change of the read-out against control, counted positive when it falls. Compound `O=S(=O)(c1ccc(F)cc1)N1CCN(c2ncccn2)CC1` yielded a solubility in [1] of 64 µM (≈ 20.6 µg/mL). Also, the result in [2], in [3], in [4] and in data set [5] was inactive. The EC50 in data set [6] was found to be 310 µM. Also, in [7], the inhibition at 10 min, up to 30 µM was 9.63%.
In data set [1], `CCCC(=O)N1CCN(c2nc(C)cc(NCC)n2)CC1` came in with a solubility of more than 120 µM. Also, the result in [2], in [3], in data set [4] and in data set [5] was inactive. For the same compound, the half-maximal effective concentration (EC50) in data set [6] was 67 µM.
The half-life is the time in which the quantity being followed falls by half. For orientation: CC50 means the concentration at which the toxic effect on the cells reaches its halfway point. With `CCNc1nc(C)cc(N2CCN(C(=O)c3ccc([N+](=O)[O-])cc3)CC2)n1`, the half-life in [8] was more than 1 h. Also, the solubility in [1] was more than 120 µM. For the same compound, the Activity result in data set [9] is “Non-Toxic”; in [12], “Non-Toxic”; in data set [14], “Dose-Dependent Effect”; in data set [16], “Non-Toxic”. Further, the remaining at 1 h in data set [10] stood at 100%. Also, the “Ratio EC50” value in data set [11] is recorded as 14. Further, the EC50 in data set [6] came to 0.91 µM. The CC50 at 120 h in data set [13] was more than 100 µM. Besides, the selectivity ratio in data set [15] was more than 110.
`CCNc1nc(C)cc(N2CCN(C(=O)c3ccc([N+](=O)[O-])cc3Cl)CC2)n1`: in [8], the half-life is more than 1 h. In data set [1], this compound registered a solubility of 111 µM (≈ 44.9 µg/mL). Also, the Activity entry in data set [9] was “Non-Toxic”; in [12], “Non-Toxic”; in data set [14] it was “Dose-Dependent Effect”; in [16], “Non-Toxic”. The “Ratio EC50” value in data set [11] is reported as 15.1. Besides, the EC50 in data set [6] is more than 0.78 µM. Also, the CC50 at 120 h in [13] is more than 100 µM.
With `CCNc1nc(C)cc(N2CCN(C(=O)c3cc(Cl)cc(Cl)c3)CC2)n1`, in data set [8], the half-life was more than 1 h. This compound also returned a solubility in [1] of 108 µM (≈ 42.6 µg/mL). The Activity entry in data set [9] was “Non-Toxic”; in [12] it was “Non-Toxic”; in data set [14], “Dose-Dependent Effect”; in data set [16], “Non-Toxic”. Moreover, the “Ratio EC50” value in data set [11] was 9.7. In addition, the EC50 in data set [6] was found to be 0.47 µM. Further, in data set [13], the CC50 at 120 h was determined as 80 µM. In addition, the selectivity ratio in [15] was 173.
In turn, `CCCS(=O)(=O)N1CCN(c2nc(C)cc(NCC)n2)CC1` returned a solubility in [1] of more than 120 µM. For the same compound, the result in data set [2], in data set [3], in data set [4] and in data set [5] was inactive. In addition, the half-maximal effective concentration (EC50) in data set [6] came out at 70 µM.
With `CCNc1nc(C)cc(N2CCN(C(=O)c3ccc(F)cc3)CC2)n1`, the half-life in [8] is more than 1 h. In addition, the solubility in [1] was more than 120 µM. Further, the result in [2], in [3], in data set [4] and in data set [5] was inactive. Further, the Activity entry in [9], in data set [12] and in [16] was “Non-Toxic” throughout. In addition, the EC50 in data set [6] was 1.52 µM. In data set [13], the 50% cytotoxic concentration (CC50) at 120 h was found to be 165 µM. Besides, the selectivity ratio in [15] amounted to 109.
Regarding `CCNc1nc(C)cc(N2CCN(C(=O)c3cccc([N+](=O)[O-])c3)CC2)n1`, the half-life in data set [8] is more than 1 h. Also, the solubility in data set [1] was more than 120 µM. The “log(activity)” value in data set [17] is approximately 4.5. For the same compound, the Activity entry in data set [9] was “Non-Toxic”; in data set [12], “Non-Toxic”; in [14] it was “Dose-Dependent Effect”; in data set [16], “Non-Toxic”. Besides, the “Ratio EC50” value in data set [11] turned out to be 13.3. Also, the EC50 in data set [6] was 0.7 µM. Moreover, the CC50 at 120 h in data set [13] was more than 100 µM. For the same compound, the selectivity ratio in [15] was more than 143.
With `CCNc1nc(C)cc(N2CCN(C(=O)c3ccc(OC)cc3)CC2)n1`, the half-life in data set [8] is more than 1 h. In data set [1], this compound had a solubility of more than 120 µM. The Activity entry in data set [9], in data set [12] and in data set [16] was “Non-Toxic” throughout. Besides, in data set [6], the half-maximal effective concentration (EC50) was 1.4 µM. In addition, the CC50 at 120 h in data set [13] is 136 µM. Further, the selectivity ratio in [15] was determined as 97.
Take `CCNc1nc(C)cc(N2CCN(C(=O)c3cccc(Br)c3)CC2)n1`: the half-life in data set [8] is more than 1 h. In addition, the solubility in [1] is more than 120 µM. Further, the Activity entry in data set [9], in [12] and in [16] was “Non-Toxic” throughout. Further, the EC50 in data set [6] was 0.94 µM. For the same compound, the CC50 at 120 h in [13] is more than 100 µM. In addition, the selectivity ratio in data set [15] is more than 107.
On to `CCNc1nc(C)cc(N2CCN(C(=O)c3ccc(I)cc3)CC2)n1`, for which the half-life in data set [8] was more than 1 h. The solubility in data set [1] was determined as 112 µM (≈ 50.5 µg/mL). The Activity entry in data set [9], in data set [12] and in [16] was “Non-Toxic” each time. In addition, the 50% effective concentration (EC50) in data set [6] amounted to 0.7 µM. Besides, the CC50 at 120 h in data set [13] is 58 µM. Further, the selectivity ratio in [15] stood at 82.
In the case of `CCNc1nc(C)cc(N2CCN(C(=O)c3ccc(Br)cc3)CC2)n1`, the half-life in data set [8] was more than 1 h. In [1], this compound displayed a solubility of more than 120 µM. Besides, the “log(activity)” value is on record as approximately 4.5 in data set [17] and more than 5 in data set [18]. Further, the Activity entry in data set [9] is “Non-Toxic”; in data set [12], “Non-Toxic”; in data set [14] it was “Dose-Dependent Effect”; in data set [16] it was “Non-Toxic”. The “Ratio EC50” value in [11] is recorded as 8.9. Besides, the EC50 in data set [6] was found to be 0.6 µM. In data set [13], the CC50 at 120 h was more than 96 µM. In addition, the selectivity ratio in data set [15] was more than 159.
